These results are taken from US9649381B2, “Transporter protein-coupled nanodevices for targeted drug delivery” (Wayne State University, priority 2013, dated 2017).

The test system of assay [1] is C2Hx rats. Put plainly: EMG recording of diaphragm recovery in C2Hx rats after injection into the paralyzed hemidiaphragm. Type of assay: in vivo, rat. The source says: In one case, rats with hemisection at C2Hx, hereafter “C2Hx rats,” have undergone surgical treatment to disrupt the bulbospinal pathway from the rVRG to the PN, the primary source for descending respiratory drive. Paralysis of the ipsilateral diaphragm muscle in C2Hx confirmed by electomygram (EMG). In such rats, the latent crossed phrenic pathway remains intact, as axons decussate caudal to injury.
In one example, a nanodevice with a targeting portion of WGA-HRP and a molecule to be delivered of pro-THP, the pro-THP being bound to the connecting portion by a slow drug release linker, was administered by injection into the paralyzed hemidiaphragms of a cohort of 11 C2-hemisected rats. About 50 μl of the nanodevice, which contained about 0.275 μg of pro-THP, was injected. Five 10 μl injections were conducted at even spatial intervals to spread the conjugate throughout the hemidiaphragm. This constitutes a single round of injections and thus considered to be a one-time, single-injection type of treatment.
FIG. 3 illustrates a trial of C2Hx rats that have been treated with a WGA-HRP/gold/pro-theophylline nanodevice. In each plot, the Y-axis 301a/b/c/d represents a voltage signal and the X-axis 302/a/b/c/d represents time, increasing from left to right. Two different types of plots are shown in FIG. 3; FIG. 3A-C are EMG recordings and FIG. 3D is a phrenic nerve recording. […]

In assay [2] the test system is rat spinal cord injury model animals. Put plainly: Chronic systemic drug administration, persistence of hemidiaphragm recovery in spinal cord injury model animals. As to conditions: multiple systemic administrations over 3 days. Type of assay: in vivo. The source says: Chronic administrations of theophylline, however, induce plasticity in the respiratory pathways which results in recovery that persists for days. Specifically, three days of orally administered theophylline three times per day (for a total of nine doses) was sufficient to bring about and maintain respiratory recovery that persisted for about 3 days, about 7 days, about 12 days, and about 30 days after the last drug administration in separate groups of animals.
Theophylline is both an adenosine receptor antagonist and a phosphodiesterase (PDE) inhibitor. Chronic administration of rolipram (a PDE-4 specific inhibitor), pentoxifylline (a general PDE inhibitor), or DPCPX (an adenosine A1 receptor antagonist) also induce persistent functional recovery of a paralyzed hemidiaphragm in rat spinal cord injury model animals for as long as 10 days, the longest interval studied, after the animal is last exposed to the drugs. Although rolipram and pentoxifylline have been approved for clinical use, these “first generation” PDE inhibitors can induce the same side effects as theophylline, including nausea and vomiting.

Assay [3] relates to patients with cervical spinal cord injury. The note with it: cited from earlier work.

On to `CCCn1c(=O)c2[nH]c(C3CCCC3)nc2n(CCC)c1=O` [DPCPX, 1,3-dipropyl-8-cyclopentylxanthine], for which the “dosage required for recovery in a rat” value in assay [1] (single administration, studies like FIG. 3A-D) amounted to 0.093 microgram.
In the case of `Cn1c(=O)c2[nH]cnc2n(C)c1=O` [theophylline], the “recovery after multiple systemic administrations” value in assay [2] is “long-lasting recovery”. Also, in assay [1] (C2Hx rats, systemic treatment), the “amount of theophylline required to realize recovery” value is 15 mg/kg. Further, the “left diaphragm EMG activity” value in assay [3] (patient with asymmetrical cervical spinal cord injury, acute and chronic theophylline) is recorded as “markedly increased”. The “increase in diaphragm EMG activity, maximum” value in assay [3] (tetraplegic patient, ventilator dependent, intravenous, increasing doses over one day, therapeutic levels) was 50%.
